ChEMBL document CHEMBL1150975, “Biochemical and three-dimensional-structural study of the specific inhibition of protein kinase CK2 by [5-oxo-5,6-dihydroindolo-(1,2-a)quinazolin-7-yl]acetic acid (IQA)” (Biochem J, 2003)

Columns and labels:
[1] = target: Casein kinase I (Homo sapiens) (UniProt Q9HCP0+P78368+P48730+P49674+P48729); experiment: Percent residual CK1 activity in the presence of 10uM inhibitor; format: protein assay
[2] = target: Tyrosine-protein kinase Lyn (Homo sapiens) (UniProt P07948); experiment: Percent residual Lyn activity in the presence of 10uM inhibitor
[3] = Percent residual Phosphorylase kinase activity in the presence of 10uM inhibitor
[4] = target: Tyrosine-protein kinase Fgr (Homo sapiens) (UniProt P09769); experiment: Percent residual c-Fgr activity in the presence of 10uM inhibitor
[5] = target: Mitogen-activated protein kinase 1 (Homo sapiens) (UniProt P28482); experiment: Percent residual ERK2 activity in the presence of 10uM inhibitor
[6] = target: cAMP-dependent protein kinase (PKA) (Homo sapiens, UniProt P22694+P17612+P22612); experiment: Percent residual PKA activity in the presence of 10uM inhibitor; format: protein assay
[7] = target: T1, 3-phosphoinositide-dependent protein kinase 1 (Homo sapiens) (UniProt O15530); experiment: Percent residual PDK1 activity in the presence of 10uM inhibitor
T1 sequence (whole entry): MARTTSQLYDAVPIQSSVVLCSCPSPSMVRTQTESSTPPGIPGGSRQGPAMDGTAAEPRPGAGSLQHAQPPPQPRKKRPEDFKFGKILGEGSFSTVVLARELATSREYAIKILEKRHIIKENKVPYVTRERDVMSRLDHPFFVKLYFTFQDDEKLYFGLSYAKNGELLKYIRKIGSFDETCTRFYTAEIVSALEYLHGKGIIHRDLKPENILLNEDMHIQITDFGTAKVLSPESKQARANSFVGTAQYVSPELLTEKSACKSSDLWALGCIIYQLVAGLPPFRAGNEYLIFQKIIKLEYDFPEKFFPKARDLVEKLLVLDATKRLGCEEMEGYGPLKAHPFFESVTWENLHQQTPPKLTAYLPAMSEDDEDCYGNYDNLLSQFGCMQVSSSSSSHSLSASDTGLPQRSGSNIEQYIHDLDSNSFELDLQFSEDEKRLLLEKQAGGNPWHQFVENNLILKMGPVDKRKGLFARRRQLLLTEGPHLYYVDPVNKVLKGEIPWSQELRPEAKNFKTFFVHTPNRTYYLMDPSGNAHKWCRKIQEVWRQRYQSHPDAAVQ

[8] = target: T2, Mitogen-activated protein kinase 13 (Homo sapiens) (UniProt O15264); experiment: Percent residual p38delta activity in the presence of 10uM inhibitor
T2 sequence (whole entry): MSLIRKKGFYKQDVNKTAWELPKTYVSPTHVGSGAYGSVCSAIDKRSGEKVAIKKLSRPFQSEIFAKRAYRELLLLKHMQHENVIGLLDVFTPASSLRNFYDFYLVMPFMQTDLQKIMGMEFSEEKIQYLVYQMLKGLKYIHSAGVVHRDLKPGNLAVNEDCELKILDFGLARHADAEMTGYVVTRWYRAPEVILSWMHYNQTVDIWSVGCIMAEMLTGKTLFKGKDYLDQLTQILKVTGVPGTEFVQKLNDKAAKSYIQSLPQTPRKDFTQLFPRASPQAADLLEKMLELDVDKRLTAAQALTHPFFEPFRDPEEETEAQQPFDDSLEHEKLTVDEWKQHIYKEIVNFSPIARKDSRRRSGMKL

[9] = target: Ribosomal protein S6 kinase beta-1 (Homo sapiens) (UniProt P23443); experiment: Percent residual S6K1 activity in the presence of 10uM inhibitor
[10] = target: Mitogen-activated protein kinase 11 (Homo sapiens) (UniProt Q15759); experiment: Percent residual p38beta activity in the presence of 10uM inhibitor
[11] = target: Ribosomal protein S6 kinase alpha-1 (Homo sapiens) (UniProt Q15418); experiment: Percent residual MAPKAPK1 activity in the presence of 10uM inhibitor
[12] = target: T3, MAP kinase-activated protein kinase 5 (Homo sapiens) (UniProt Q8IW41); experiment: Percent residual PRAK activity in the presence of 10uM inhibitor
T3 sequence (whole entry): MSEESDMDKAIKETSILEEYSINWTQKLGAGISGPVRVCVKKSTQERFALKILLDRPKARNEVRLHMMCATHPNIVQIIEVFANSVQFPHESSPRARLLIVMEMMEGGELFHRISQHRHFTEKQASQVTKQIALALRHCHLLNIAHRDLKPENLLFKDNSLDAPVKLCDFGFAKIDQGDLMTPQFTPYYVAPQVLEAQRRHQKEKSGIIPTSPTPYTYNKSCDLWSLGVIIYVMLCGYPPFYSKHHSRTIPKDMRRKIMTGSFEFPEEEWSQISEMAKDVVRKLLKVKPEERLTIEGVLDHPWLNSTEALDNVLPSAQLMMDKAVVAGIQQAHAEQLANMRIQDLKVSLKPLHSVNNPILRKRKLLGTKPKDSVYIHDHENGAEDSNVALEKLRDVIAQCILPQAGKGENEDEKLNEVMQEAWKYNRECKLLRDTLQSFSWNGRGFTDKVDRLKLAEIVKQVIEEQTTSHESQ

[13] = target: Mitogen-activated protein kinase kinase kinase kinase 5 (Homo sapiens) (UniProt Q9Y4K4); experiment: Percent residual G-CK activity in the presence of 10uM inhibitor
[14] = target: Tyrosine-protein kinase Lck (Homo sapiens, UniProt P06239); experiment: Percent residual Lck activity in the presence of 10uM inhibitor
[15] = target: Tyrosine-protein kinase CSK (Homo sapiens) (UniProt P41240); experiment: Percent residual CSK activity in the presence of 10uM inhibitor
[16] = Inhibition of I174A-mutated CK2 holoenzyme; parameters: species or system Zea mays
[17] = target: c-Jun N-terminal kinase, JNK (Homo sapiens) (UniProt P45983+P53779+P45984); experiment: Percent residual JNK activity in the presence of 10uM inhibitor; format: protein assay
[18] = target: RAC-alpha serine/threonine-protein kinase (Homo sapiens) (UniProt P31749); experiment: Percent residual PKBalpha activity in the presence of 10uM inhibitor
[19] = target: Rho-associated protein kinase 2 (Homo sapiens) (UniProt O75116); experiment: Percent residual ROCK-II activity in the presence of 10uM inhibitor
[20] = target: MAP kinase-activated protein kinase 2 (Homo sapiens) (UniProt P49137); experiment: Percent residual MAPKAPK2 activity in the presence of 10uM inhibitor
[21] = target: Dual specificity mitogen-activated protein kinase kinase 1 (Homo sapiens) (UniProt Q02750); experiment: Percent residual MKK1 activity in presence of 10uM inhibitor
[22] = target: Protein kinase C alpha type (Homo sapiens) (UniProt P17252); experiment: Percent residual PKCalpha activity in the presence of 10uM inhibitor
[23] = target: Mitogen-activated protein kinase 14 (Homo sapiens) (UniProt Q16539); experiment: Percent residual p38alpha activity in the presence of 10uM inhibitor
[24] = target: EKC/KEOPS complex subunit BUD32 (Saccharomyces cerevisiae S288c) (UniProt P53323); experiment: Percent residual PiD261 activity in the presence of 10uM inhibitor
[25] = target: Glycogen synthase kinase-3 beta (Homo sapiens, UniProt P49841); experiment: Percent residual GSK3-beta activity in the presence of 10uM inhibitor

Chain of Tyrosine-protein kinase Lck (P06239 2-509 limits assumed): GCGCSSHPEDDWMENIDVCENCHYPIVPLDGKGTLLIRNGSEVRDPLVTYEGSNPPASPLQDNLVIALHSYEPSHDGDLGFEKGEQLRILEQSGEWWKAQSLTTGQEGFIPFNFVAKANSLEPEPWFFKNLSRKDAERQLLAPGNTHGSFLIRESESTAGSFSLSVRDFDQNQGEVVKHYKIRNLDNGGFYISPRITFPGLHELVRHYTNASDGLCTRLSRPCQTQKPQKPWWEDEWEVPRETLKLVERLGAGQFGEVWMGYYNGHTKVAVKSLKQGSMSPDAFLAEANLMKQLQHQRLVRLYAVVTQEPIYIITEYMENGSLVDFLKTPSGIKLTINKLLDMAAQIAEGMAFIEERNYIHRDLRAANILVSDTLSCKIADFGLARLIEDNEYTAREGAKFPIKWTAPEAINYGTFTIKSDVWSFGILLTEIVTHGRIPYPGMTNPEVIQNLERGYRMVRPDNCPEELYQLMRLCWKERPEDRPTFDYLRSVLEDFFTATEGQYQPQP
Chain of Dual specificity mitogen-activated protein kinase kinase 1 (Homo sapiens) (Q02750 whole entry): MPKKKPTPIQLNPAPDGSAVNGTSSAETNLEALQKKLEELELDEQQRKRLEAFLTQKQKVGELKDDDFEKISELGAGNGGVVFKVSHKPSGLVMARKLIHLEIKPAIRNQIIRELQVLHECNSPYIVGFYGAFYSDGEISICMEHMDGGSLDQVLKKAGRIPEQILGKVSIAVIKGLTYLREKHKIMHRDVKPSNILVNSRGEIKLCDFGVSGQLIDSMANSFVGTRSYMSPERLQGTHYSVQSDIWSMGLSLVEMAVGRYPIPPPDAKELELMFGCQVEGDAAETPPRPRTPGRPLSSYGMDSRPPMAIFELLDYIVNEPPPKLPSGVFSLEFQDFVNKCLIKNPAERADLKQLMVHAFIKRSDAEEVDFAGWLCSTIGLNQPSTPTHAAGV
Chain of Ribosomal protein S6 kinase alpha-1 (Homo sapiens) (Q15418 whole entry): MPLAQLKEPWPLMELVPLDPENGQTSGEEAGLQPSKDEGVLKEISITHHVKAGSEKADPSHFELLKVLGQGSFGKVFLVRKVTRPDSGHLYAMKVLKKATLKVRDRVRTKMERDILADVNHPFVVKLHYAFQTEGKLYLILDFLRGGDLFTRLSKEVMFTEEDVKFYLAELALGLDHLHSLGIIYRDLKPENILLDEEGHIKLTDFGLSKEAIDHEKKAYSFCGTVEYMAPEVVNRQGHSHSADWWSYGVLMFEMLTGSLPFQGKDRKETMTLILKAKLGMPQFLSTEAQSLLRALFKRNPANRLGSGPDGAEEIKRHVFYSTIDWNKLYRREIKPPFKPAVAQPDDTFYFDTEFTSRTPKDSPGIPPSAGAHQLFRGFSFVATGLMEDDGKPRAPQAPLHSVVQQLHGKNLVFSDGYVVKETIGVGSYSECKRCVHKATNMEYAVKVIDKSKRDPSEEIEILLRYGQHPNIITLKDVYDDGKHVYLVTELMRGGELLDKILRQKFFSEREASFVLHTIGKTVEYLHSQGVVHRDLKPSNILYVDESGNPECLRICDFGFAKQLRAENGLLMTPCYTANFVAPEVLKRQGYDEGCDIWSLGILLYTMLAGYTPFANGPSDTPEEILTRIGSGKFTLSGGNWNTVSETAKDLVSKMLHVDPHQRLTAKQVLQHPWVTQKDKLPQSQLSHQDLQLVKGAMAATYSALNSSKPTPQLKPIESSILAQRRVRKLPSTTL
Chain of Tyrosine-protein kinase Fgr (Homo sapiens) (P09769 2-529 limits assumed): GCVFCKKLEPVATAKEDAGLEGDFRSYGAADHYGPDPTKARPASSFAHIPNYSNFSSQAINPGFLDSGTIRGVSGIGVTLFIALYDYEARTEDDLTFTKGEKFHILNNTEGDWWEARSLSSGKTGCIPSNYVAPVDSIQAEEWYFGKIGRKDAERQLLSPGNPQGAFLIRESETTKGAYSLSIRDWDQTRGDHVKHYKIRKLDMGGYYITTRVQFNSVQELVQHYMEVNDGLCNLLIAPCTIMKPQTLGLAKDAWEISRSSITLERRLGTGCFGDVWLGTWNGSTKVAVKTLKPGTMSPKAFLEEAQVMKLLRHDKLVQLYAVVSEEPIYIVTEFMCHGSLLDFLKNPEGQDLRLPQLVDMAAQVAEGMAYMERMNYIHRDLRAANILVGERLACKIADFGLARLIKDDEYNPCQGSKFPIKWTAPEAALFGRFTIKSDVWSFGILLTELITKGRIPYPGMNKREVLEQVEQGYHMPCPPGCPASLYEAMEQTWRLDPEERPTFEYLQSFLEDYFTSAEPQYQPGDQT
Chain of MAP kinase-activated protein kinase 2 (Homo sapiens) (P49137 whole entry, looked up): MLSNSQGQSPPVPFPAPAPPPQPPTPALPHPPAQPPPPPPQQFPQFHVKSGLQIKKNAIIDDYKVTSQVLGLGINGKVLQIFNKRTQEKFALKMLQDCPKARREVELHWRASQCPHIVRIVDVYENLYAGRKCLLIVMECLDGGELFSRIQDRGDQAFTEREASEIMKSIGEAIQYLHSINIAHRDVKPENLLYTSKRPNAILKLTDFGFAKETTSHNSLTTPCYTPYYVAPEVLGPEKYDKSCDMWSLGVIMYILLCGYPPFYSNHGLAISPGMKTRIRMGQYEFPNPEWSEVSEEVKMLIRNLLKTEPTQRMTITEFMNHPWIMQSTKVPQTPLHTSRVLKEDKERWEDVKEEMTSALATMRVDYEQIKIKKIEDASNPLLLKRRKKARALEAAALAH
Chain of RAC-alpha serine/threonine-protein kinase (Homo sapiens) (P31749 whole entry): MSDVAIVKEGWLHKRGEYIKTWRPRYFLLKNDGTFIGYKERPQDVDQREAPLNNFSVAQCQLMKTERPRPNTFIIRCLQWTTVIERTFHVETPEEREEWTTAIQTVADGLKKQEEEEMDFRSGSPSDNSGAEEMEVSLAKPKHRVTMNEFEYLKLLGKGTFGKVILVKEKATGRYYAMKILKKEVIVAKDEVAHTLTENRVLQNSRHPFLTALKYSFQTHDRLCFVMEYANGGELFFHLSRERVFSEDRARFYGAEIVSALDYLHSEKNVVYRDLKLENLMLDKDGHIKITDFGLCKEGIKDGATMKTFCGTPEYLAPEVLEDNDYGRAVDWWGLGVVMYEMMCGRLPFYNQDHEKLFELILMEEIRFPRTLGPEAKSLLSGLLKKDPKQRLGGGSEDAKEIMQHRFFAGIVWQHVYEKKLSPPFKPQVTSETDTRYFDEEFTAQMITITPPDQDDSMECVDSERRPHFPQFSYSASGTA
Chain of Ribosomal protein S6 kinase beta-1 (Homo sapiens) (P23443 whole entry, looked up): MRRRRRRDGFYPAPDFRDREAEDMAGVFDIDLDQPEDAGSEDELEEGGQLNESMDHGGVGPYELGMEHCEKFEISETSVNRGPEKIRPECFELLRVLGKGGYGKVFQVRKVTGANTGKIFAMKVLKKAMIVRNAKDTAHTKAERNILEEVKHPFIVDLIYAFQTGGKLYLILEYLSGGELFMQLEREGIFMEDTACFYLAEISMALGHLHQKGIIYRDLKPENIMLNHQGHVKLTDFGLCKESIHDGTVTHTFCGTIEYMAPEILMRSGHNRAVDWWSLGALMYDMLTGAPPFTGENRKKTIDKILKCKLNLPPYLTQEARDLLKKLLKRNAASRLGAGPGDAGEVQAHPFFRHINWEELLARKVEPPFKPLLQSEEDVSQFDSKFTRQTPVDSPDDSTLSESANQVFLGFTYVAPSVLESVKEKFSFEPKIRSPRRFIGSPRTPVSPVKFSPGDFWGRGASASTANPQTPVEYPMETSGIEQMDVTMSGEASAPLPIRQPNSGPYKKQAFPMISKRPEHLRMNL
Chain of Mitogen-activated protein kinase 1 (Homo sapiens) (P28482 whole entry): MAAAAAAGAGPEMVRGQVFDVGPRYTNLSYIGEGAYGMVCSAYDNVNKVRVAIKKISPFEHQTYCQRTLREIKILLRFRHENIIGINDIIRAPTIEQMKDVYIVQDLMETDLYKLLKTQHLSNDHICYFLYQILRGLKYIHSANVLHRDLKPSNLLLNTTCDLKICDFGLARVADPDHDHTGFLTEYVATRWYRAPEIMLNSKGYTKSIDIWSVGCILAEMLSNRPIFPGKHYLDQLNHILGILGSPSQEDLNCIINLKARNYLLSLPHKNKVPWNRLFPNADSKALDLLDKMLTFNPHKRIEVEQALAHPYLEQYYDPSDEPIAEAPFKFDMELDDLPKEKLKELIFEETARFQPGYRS
Chain of Mitogen-activated protein kinase 11 (Homo sapiens) (Q15759 whole entry): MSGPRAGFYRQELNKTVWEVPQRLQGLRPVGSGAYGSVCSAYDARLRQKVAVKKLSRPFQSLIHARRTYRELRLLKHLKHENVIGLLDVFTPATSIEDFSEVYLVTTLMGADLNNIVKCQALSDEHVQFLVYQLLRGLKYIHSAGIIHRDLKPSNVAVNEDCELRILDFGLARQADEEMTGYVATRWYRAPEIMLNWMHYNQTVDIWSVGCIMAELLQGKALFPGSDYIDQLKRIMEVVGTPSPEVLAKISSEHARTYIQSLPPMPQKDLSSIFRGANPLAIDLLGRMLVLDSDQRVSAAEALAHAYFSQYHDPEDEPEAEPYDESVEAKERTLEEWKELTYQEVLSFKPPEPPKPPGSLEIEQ

SMILES	Activity [1]	Activity [2]	Activity [3]	Activity [4]	Activity [5]	Activity [6]	Activity [7]	Activity [8]	Activity [9]	Activity [10]	Activity [11]	Activity [12]	Activity [13]	Activity [14]	Activity [15]	IC50 [16]	Activity [17]	Activity [18]	Activity [19]	Activity [20]	other results
O=C(O)Cc1c2ccccc2n2c1[nH]c(=O)c1ccccc12	77%	93%	79%	91%	92%	66%	93%	100%	84%	92%	91%	76%	98%	52%	82%	11 µM	100%	84%	94%	70%	Activity [21]: 85%; Activity [22]: 107%; Activity [23]: 101%; Activity [24]: 100%; Activity [25]: 66%
O=c1cc(-c2ccc(O)cc2)oc2cc(O)cc(O)c12 [APIGENIN]	106%	88%	70%	48%	83%	87%	86%	89%	65%	87%	86%	93%	96%	45%	77%	4.29 µM	92%	82%	88%	91%	Activity [21]: 98%; Activity [22]: 100%; Activity [23]: 101%; Activity [24]: 103%; Activity [25]: 54%
Cc1cc(O)c2c(c1)C(=O)c1cc(O)cc(O)c1C2=O [EMODIN]	79%	90%	104%	99%	88%	94%	90%	100%	84%	101%	103%	81%	89%	79%	109%	7.3 µM	101%	82%	90%	82%	Activity [21]: 111%; Activity [22]: 71%; Activity [23]: 92%; Activity [24]: 90%; Activity [25]: 68%
